The subject of data set [1] is HEK293 cells. Nature of the data set: Toxicity to HEK293 cells (MTT). The format is cell-based. The settings on record: for 100 μM absorbance / 100 μM relative viability: HEK293, 100 μM; for 100 μM absorbance / 100 μM relative viability / 500 μM absorbance / 500 μM relative viability: 12 hours; for 100 μM absorbance / 500 μM absorbance: 570 nm; for 100 μM relative viability / 500 μM relative viability: control = 1; for 500 μM absorbance / 500 μM relative viability: HEK293, 500 μM; for EC50: HEK293, 2′-deoxy-2′-fluoro-nucleosides and nucleotides. As for the experimental part: 1. HEK293 cells were seeded in 96-well plate at a density of 25,000 cells/well the day before the experiment starts;
2. After the cells reach 50˜60% confluency, media was taken out, and 100 μL of fresh media was added to each well;
3. F-derivatives were plated at 100 and 500 μM (in duplicates) concentrations;
4. After 12 hours' incubation at 37° C., the media was taken out, 100 μL of fresh media was added to each well along with 20 μL of 5 mg/mL of MTT solution (in PBS);
5. After 1.5 hours' incubation at 37° C., media was taken out and 100 μL of DMSO was added to each well, the plate was mixed on shaker for 5 mins;
(§1) Absorbance was measured at 570 nm.
(§2) Assay for Determining Toxicity to HEK293 and Neuro2A Cells • 1. HEK293 and Neuro2A cells were seeded in 96-well plate at a density of 25,000 cells/well the day before the experiment starts; • 2. After the cells reach 50˜60% confluency, media was taken out, and 100 μL of fresh media was added to each well; • 3. Cl-derivatives were plated at 100 and 500 μM (in duplicates) concentrations; • 4. After 12 hours' incubation at 37° C., the media was taken out, 100 μL of fresh media was added to each well along with 20 μL of 5 mg/mL of MTT solution (in PBS); • 5. After 2 hours' incubation at 37° C., media was taken out and 100 μL of DMSO was added to each well, the plate was mixed on shaker for 5 mins; • 6. Absorbance was measured at 570 nm.

The test system of data set [2] is Neuro2A cells. The data set can be described thus: Toxicity to Neuro2A cells (MTT). The format is cell-based. The settings on record: for 100 μM absorbance / 100 μM relative viability / 500 μM absorbance / 500 μM relative viability: 12 hours; for 100 μM absorbance / 500 μM absorbance: 570 nm; for EC50: 2′-deoxy-2′-fluoro-nucleosides and nucleotides. The protocol:
6. Neuro2A cells were seeded in 96-well plate at a density of 25,000 cells/well the day before the experiment starts;
7. After the cells reach 50˜60% confluency, media was taken out, and 100 μL of fresh media was added to each well;
8. […]
9. After 12 hours' incubation at 37° C., the media was taken out, 100 μL of fresh media was added to each well along with 20 μL of 5 mg/mL of MTT solution (in PBS);
10. After 1.5 hours' incubation at 37° C., media was taken out and 100 μL of DMSO was added to each well, the plate was mixed on shaker for 5 mins;
as §1
as §2, with “Cl-derivatives were plated at 100 and 500 μM (in duplicates) concentrations; • 4.” left out

Data set [3] deals with T1, SirT3 (Homo sapiens, UniProt Q9NTG7).
T1 sequence (Q9NTG7 1-399): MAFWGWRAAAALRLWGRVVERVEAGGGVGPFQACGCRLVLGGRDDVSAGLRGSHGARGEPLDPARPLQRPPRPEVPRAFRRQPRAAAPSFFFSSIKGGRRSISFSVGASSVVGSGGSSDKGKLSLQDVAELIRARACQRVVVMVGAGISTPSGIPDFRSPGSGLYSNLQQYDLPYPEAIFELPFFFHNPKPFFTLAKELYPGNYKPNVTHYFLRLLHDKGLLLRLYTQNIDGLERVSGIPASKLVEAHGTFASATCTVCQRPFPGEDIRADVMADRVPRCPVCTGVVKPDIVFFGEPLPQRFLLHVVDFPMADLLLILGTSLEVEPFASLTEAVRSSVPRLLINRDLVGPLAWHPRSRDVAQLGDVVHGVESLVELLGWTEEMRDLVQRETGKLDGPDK
The data set can be described thus: SirT3 activity assay (HPLC of 2′- and 3′-AADPR). It is filed as biochemical. The protocol:
Reactions containing 800 μM NAD^+, 500 μM H3 peptide, and 100 mM phosphate buffer at pH 7.5, with varying concentrations of 2′-deoxy-2′-fluoro-nucleosides or nucleotides were initiated by addition of SirT3 enzyme to a concentration of 13.9 μM. Reactions were incubated for 2 hours at 37° C. and quenched by addition of trifluoroacetic acid to pH 2. After centrifugation to remove precipitates, reactions were injected on HPLC for activity analysis. Production of 2′- and 3′-AADPR were analyzed at 260 nm.
SirT3 Activity Assay: Reactions containing 800 μM NAD^+, 500 μM H3 peptide, and 100 mM phosphate buffer at pH 7.5, with varying concentrations of 2′-deoxy-2′-chloro-nucleosides were initiated by addition of SirT3 enzyme to a concentration of 13.9 μM. Reactions were incubated for 2 hours at 37° C. and quenched by addition of trifluoroacetic acid to pH 2. After centrifugation to remove precipitates, reactions were injected on HPLC for activity analysis. Production of 2′- and 3′-AADPR were analyzed at 260 nm.

The target in data set [4] is T2, SirT2 (Homo sapiens, UniProt Q8IXJ6).
T2 sequence (Q8IXJ6 1-389): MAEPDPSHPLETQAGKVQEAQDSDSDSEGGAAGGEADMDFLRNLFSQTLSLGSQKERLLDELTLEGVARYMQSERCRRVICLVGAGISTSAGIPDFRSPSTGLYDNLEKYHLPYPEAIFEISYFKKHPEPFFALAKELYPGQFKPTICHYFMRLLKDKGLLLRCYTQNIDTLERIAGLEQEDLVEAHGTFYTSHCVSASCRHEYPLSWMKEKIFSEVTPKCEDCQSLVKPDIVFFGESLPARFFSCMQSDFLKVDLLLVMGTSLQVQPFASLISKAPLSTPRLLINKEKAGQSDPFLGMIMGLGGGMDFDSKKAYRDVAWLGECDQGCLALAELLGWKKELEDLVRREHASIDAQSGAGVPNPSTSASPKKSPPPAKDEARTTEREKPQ
The data set can be described thus: SirT2 activity assay (HPLC of 2′- and 3′-AADPR). It is filed as biochemical. The settings on record: at 1 mM; read-out: SirT2 % inhibited. The protocol:
Reactions containing 800 μM NAD^+, 500 μM H3 peptide, and 100 mM phosphate buffer at pH 7.5, with varying concentrations of 2′-deoxy-2′-fluoro-nucleosides or nucleotides were initiated by addition of SirT2 enzyme to a concentration of 16.6 μM. Reactions were incubated for 45 mins at 37° C. and quenched by addition of trifluoroacetic acid to pH 2. After centrifugation to remove precipitates, reactions were injected on HPLC for activity analysis. Production of 2′- and 3′-AADPR were analyzed at 260 nm.
SirT2 Activity Assay: Reactions containing 800 μM NAD^+, 500 μM H3 peptide, and 100 mM phosphate buffer at pH 7.5, with varying concentrations of 2′-deoxy-2′-chloro-nucleosides were initiated by addition of SirT2 enzyme to a concentration of 16.6 μM. Reactions were incubated for 45 mins at 37° C. and quenched by addition of trifluoroacetic acid to pH 2. After centrifugation to remove precipitates, reactions were injected on HPLC for activity analysis. Production of 2′- and 3′-AADPR were analyzed at 260 nm.

The mark [5] stands for this setting: MTT 2 hours, chloro-nucleosides.
Setting [6] is: control = 1, chloro-nucleosides.

For orientation: EC50 means the concentration giving half of the maximal effect. By Ki is commonly meant a dissociation constant, usually derived from enzyme kinetics or from competition with a known ligand. A high value points to a looser hold on the target.

As for “2′-deoxy-2′-fluoro-ribo-NAD^+ [ribo-F-NAD]”, the entries for the “100 μM absorbance” value in data set [1] (MTT 1.5 hours) and in data set [2] (MTT 1.5 hours) were 1.4985 and 1.6122, respectively. Besides, the “100 μM relative viability” value in data set [1] is 0.6592; in data set [2] (control = 1), 0.663. The “500 μM absorbance” value in data set [1] (MTT 1.5 hours) is recorded as 1.384; in data set [2] (MTT 1.5 hours), 0.6455. The “500 μM relative viability” value in data set [1] came out at 0.6087; in data set [2] (control = 1), 0.265. Also, the EC50 in data set [1] worked out at 1.02 mM; in data set [2] it was 0.35 mM.
Regarding `NC(=O)c1ccc[n+]([C@@H]2O[C@H](COP(=O)([O-])OP(=O)(O)OC[C@H]3O[C@@H](n4cnc5c(N)ncnc54)[C@H](O)[C@@H]3O)[C@@H](O)[C@@H]2F)c1` [ara-F-NAD, 2′-deoxy-2′-fluoro-arabino-NAD^+], in data set [1] (MTT 1.5 hours), the “100 μM absorbance” value came out at 1.523 and the “500 μM absorbance” value is 1.302. In data set [1], the “100 μM relative viability” value turned out to be 0.6699, the “500 μM relative viability” value stood at 0.5729 and the EC50 came to 1 mM. Also, in data set [2] (MTT 1.5 hours), the “100 μM absorbance” value is 2.2482 and the “500 μM absorbance” value is on record as 1.7012. Further, in data set [2] (control = 1), the “100 μM relative viability” value worked out at 0.924 and the “500 μM relative viability” value worked out at 0.699. In data set [2], a half-maximal effect (EC50) was put at 1.5 mM.
`NC(=O)c1ccc[n+]([C@H]2O[C@H](CO)C(O)C2Cl)c1` (stereo partly drawn) [α-ara-Cl-NR, 1-(2′-deoxy-2′-chloro-arabinofuranosyl)-nicotinamide]: in data set [1] (setting [5]), the “100 μM absorbance” value came to 2.09 and the “500 μM absorbance” value is 1.77. In data set [1] (chloro-nucleosides), the “100 μM relative viability” value is reported as 0.8601 and the “500 μM relative viability” value is reported as 0.7284. Besides, in data set [1] (HEK293, at 500 μM), the “kills % of HEK293 cells” value is “kills 30% at 500 μM”. In data set [2] (setting [5]), the “100 μM absorbance” value came to 2.575 and the “500 μM absorbance” value worked out at 2.34. Further, in data set [2] (setting [6]), the “100 μM relative viability” value is listed as 1.089 and the “500 μM relative viability” value was 0.9894. Moreover, the “toxicity to Neuro2A (in words)” value in data set [2] (at 500 μM) is given as “not toxic at 500 μM”.
`NC(=O)c1ccc[n+]([C@H]2O[C@H](CO)C(O)[C@@H]2Cl)c1` (stereo partly drawn) [α-ribo-Cl-NR, 1-(2-deoxy-2-chloro-D-ribofuranosyl)-nicotinamide]: the inhibition at 1000 µM in data set [3] (at 1 mM, read-out: SirT3 % inhibited) turned out to be 86%; in data set [4] it was 50%.
In the case of `NC(=O)c1ccc[n+]([C@@H]2O[C@H](CO)C(O)[C@@H]2Cl)c1` (stereo partly drawn) [β-ribo-Cl-NR, 1-(2-deoxy-2-chloro-D-ribofuranosyl)-nicotinamide], affinity in data set [3] (800 μM NAD+, 500 μM H3 peptide, pH 7.5, 2 hours at 37° C.) was put at a Ki of 0.082 mM. For the same compound, the inhibition at 1000 µM in data set [4] came out at 43%.

These data come from patent US9790252B2, “2-fluorinated riboses and arabinoses and methods of use and synthesis” (CORNELL UNIVERSITY, priority 2009, dated 2017).
